Patent US9073881B2, “Benzoic acid derivatives” (HOFFMANN-LA ROCHE INC., priority 2011, dated 2015)

Molecular target: Human eIF4E (Homo sapiens (Human), UniProt P06730)
Assay: Human eIF4E/4G binding assay (time-resolved fluorescence, HH-eIF4E and biotin-labeled 4G2 peptide)
Settings: inhibition of binding of His-tagged human eIF4E (aa 28-217) to biotin-labeled 4G2 peptide
Procedure: The protein was solubilized with 8 M urea and purified under denaturing conditions using nickel-charged HisTrap HP columns (GE Healthcare). The protein was refolded by diluting to approximately 0.25 mg/mL with 6 M urea, 20 mM Hepes pH 7.0, 500 mM NaCl, 1 mM DTT, 1 mM EDTA, and 0.5 M arginine.HCl, and then dialyzing overnight into the same buffer without the urea. The protein was further dialyzed into 20 mM Hepes pH 6.5, 50 mM NaCl, 1 mM EDTA, and 1 mM DTT, filtered, and then concentrated using Hitrap SP sepharose FF columns (GE Healthcare). The protein was dialyzed into 20 mM Hepes pH 7.0, 500 mM NaCl, 5 mM DTT, and 10% glycerol and stored at −80° C. until use. Test compounds (1.6 mM stock in DMSO) were diluted 3 fold in series in DMSO. Compound solutions were diluted 4 fold in Assay Buffer (50 mM sodium phosphate, pH 6.5, 50 mM KCl, 1 mM DTT and 0.5 mg/mL gammaglobulin). […] The samples were incubated at room temperature for 20 minutes. […] IC50 values were calculated using Condoseo software (Genedata AG).

Human eIF4E, sequence (P06730 28-217): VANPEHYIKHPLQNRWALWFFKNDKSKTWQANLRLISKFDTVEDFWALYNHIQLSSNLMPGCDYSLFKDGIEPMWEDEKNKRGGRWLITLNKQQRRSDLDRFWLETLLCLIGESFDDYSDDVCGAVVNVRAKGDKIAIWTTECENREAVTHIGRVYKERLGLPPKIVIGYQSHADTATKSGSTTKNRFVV

Row | IC50 [µM] | SMILES
1 | 7.7 | CC(=O)c1cccc(-c2ccc(-c3nc(-c4ccc(Cl)c(Cl)c4)cs3)cc2C(=O)O)c1 [Example 116, 3′-Acetyl-4-[4-(3,4-dichloro-phenyl)-thiazol-2-yl]-biphenyl-2-carboxylic acid]
2 | 7.6 | N#Cc1ccc(-c2ccc(-c3nc(-c4ccc(Cl)c(Cl)c4)cs3)cc2C(=O)O)cc1 [Example 106, 4′-Cyano-4-[4-(3,4-dichloro-phenyl)-thiazol-2-yl]-biphenyl-2-carboxylic acid]
3 | 5.9 | Cc1ccccc1-c1ccc(-c2nc(-c3ccc(Cl)c(Cl)c3)cs2)cc1C(=O)O [Example 141, 4-[4-(3,4-Dichloro-phenyl)-thiazol-2-yl]-2′-methyl-biphenyl-2-carboxylic acid]
4 | 1.1 | Cc1ccc(Cl)c(-c2ccc(-c3nc(-c4ccc(Cl)c(Cl)c4)cs3)cc2C(=O)O)c1 [Example 144, 2′-Chloro-4-[4-(3,4-dichloro-phenyl)-thiazol-2-yl]-5′-methyl-biphenyl-2-carboxylic acid]
5 | 1.8 | O=C(O)c1cc(-c2nc(-c3ccc(Cl)c(Cl)c3)cs2)ccc1-c1cc(F)ccc1F [Example 131, 4-[4-(3,4-Dichloro-phenyl)-thiazol-2-yl]-2′,5′-difluoro-biphenyl-2-carboxylic acid]
6 | 2.6 | O=C(O)c1cc(-c2nc(-c3ccc(Cl)c(Cl)c3)cs2)ccc1-c1ccc(F)cc1 [Example 129, 4-[4-(3,4-Dichloro-phenyl)-thiazol-2-yl]-4′-fluoro-biphenyl-2-carboxylic acid]
7 | 3.8 | O=C(O)c1cc(-c2nc(-c3ccc(Cl)c(Cl)c3)cs2)ccc1-c1cccc([N+](=O)[O-])c1 [Example 46, 4-[4-(3,4-Dichloro-phenyl)-thiazol-2-yl]-3′-nitro-biphenyl-2-carboxylic acid]
8 | 3.2 | N#Cc1cccc(-c2ccc(-c3nc(-c4ccc(Cl)c(Cl)c4)cs3)cc2C(=O)O)c1 [Example 107, 3′-Cyano-4-[4-(3,4-dichloro-phenyl)-thiazol-2-yl]-biphenyl-2-carboxylic acid]
9 | 3.4 | O=C(O)c1cc(-c2nc(-c3ccc(Cl)c(Cl)c3)cs2)ccc1-c1cc(O)ccc1Cl [Example 95, 2′-Chloro-4-[4-(3,4-dichloro-phenyl)-thiazol-2-yl]-5′-hydroxy-biphenyl-2-carboxylic acid]
10 | 4.8 | COc1ccccc1-c1ccc(-c2nc(-c3ccc(Cl)c(Cl)c3)cs2)cc1C(=O)O [Example 92, 4-[4-(3,4-Dichloro-phenyl)-thiazol-2-yl]-2′-methoxy-biphenyl-2-carboxylic acid]
11 | 14 | COc1ncc(-c2ccc(-c3nc(-c4ccc(Cl)c(Cl)c4)cs3)cc2C(=O)O)cn1 [Example 83, 5-[4-(3,4-Dichloro-phenyl)-thiazol-2-yl]-2-(2-methoxy-pyrimidin-5-yl)-benzoic acid]
12 | 9.7 | COc1cccc(-c2ccc(-c3nc(-c4ccc(Cl)c(Cl)c4)cs3)cc2C(=O)O)n1 [Example 85, 5-[4-(3,4-Dichloro-phenyl)-thiazol-2-yl]-2-(6-methoxy-pyridin-2-yl)-benzoic acid]
13 | 5.4 | O=C(O)c1cc(-c2nc(-c3ccc(Cl)c(Cl)c3)cs2)ccc1-c1cncc(Cl)c1 [Example 102, 2-(5-Chloro-pyridin-3-yl)-5-[4-(3,4-dichloro-phenyl)-thiazol-2-yl]-benzoic acid]
14 | 2.1 | O=C(O)c1cc(-c2nc(-c3ccc(Cl)c(Cl)c3)cs2)ccc1-c1cccc(Cl)c1Cl [Example 152, 2′,3′-Dichloro-4-[4-(3,4-dichloro-phenyl)-thiazol-2-yl]-biphenyl-2-carboxylic acid]
15 | 8.5 | O=C(O)c1cc(-c2nc(-c3ccc(Cl)c(Cl)c3)cs2)ccc1-c1ccncc1 [Example 103, 5-[4-(3,4-Dichloro-phenyl)-thiazol-2-yl]-2-pyridin-4-yl-benzoic acid]
16 | 3 | COc1ccc(Cl)c(-c2ccc(-c3nc(-c4ccc(Cl)c(Cl)c4)cs3)cc2C(=O)O)c1 [Example 93, 2′-Chloro-4-[4-(3,4-dichloro-phenyl)-thiazol-2-yl]-5′-methoxy-biphenyl-2-carboxylic acid]

Continued, compound first:

Row | SMILES | IC50 [µM]
17 | O=C(NC1CCOC1)c1ccc(-c2ccc(-c3nc(-c4ccc(Cl)c(Cl)c4)cs3)cc2C(=O)O)cc1 (centres unmarked) [Example 62, 4-[4-(3,4-Dichloro-phenyl)-thiazol-2-yl]-4′-(tetrahydro-furan-3-ylcarbamoyl)-biphenyl-2-carboxylic acid] | 7.7
18 | Cc1cc(C(N)=O)ccc1-c1ccc(-c2nc(-c3ccc(Cl)c(Cl)c3)cs2)cc1C(=O)O [Example 78, 4′-Carbamoyl-4-[4-(3,4-dichloro-phenyl)-thiazol-2-yl]-2′-methyl-biphenyl-2-carboxylic acid] | 1.9
19 | O=C(O)c1cc(-c2nc(-c3c(F)cccc3F)cs2)ccc1-c1ccccc1[N+](=O)[O-] [Example 20, 4-[4-(2,6-Difluoro-phenyl)-thiazol-2-yl]-2′-nitro-biphenyl-2-carboxylic acid] | > 80
20 | O=C(O)c1cc(-c2nc(-c3ccc(Cl)c(Cl)c3)cs2)ccc1-c1cc(Cl)ccc1[N+](=O)[O-] [Example 14, 5′-Chloro-4-[4-(3,4-dichloro-phenyl)-thiazol-2-yl]-2′-nitro-biphenyl-2-carboxylic acid] | 1.3
21 | N#Cc1ccc(Cl)cc1-c1ccc(-c2nc(-c3ccc(Cl)c(Cl)c3)cs2)cc1C(=O)O [Example 110, 5′-Chloro-2′-cyano-4-[4-(3,4-dichloro-phenyl)-thiazol-2-yl]-biphenyl-2-carboxylic acid] | 1.7
22 | O=C(NCc1ccncc1)c1ccc(-c2ccc(-c3nc(-c4ccc(Cl)c(Cl)c4)cs3)cc2C(=O)O)cc1 [Example 69, 4-[4-(3,4-Dichloro-phenyl)-thiazol-2-yl]-4′-[(pyridin-4-ylmethyl)-carbamoyl]-biphenyl-2-carboxylic acid] | 7.1
23 | O=C(O)c1cc(-c2nc(-c3ccncc3)cs2)ccc1-c1ccccc1[N+](=O)[O-] [Example 39, 2′-Nitro-4-(4-pyridin-4-yl-thiazol-2-yl)-biphenyl-2-carboxylic acid] | > 80
24 | O=C(O)c1cc(-c2nc(-c3ccc(OC(F)F)cc3)cs2)ccc1-c1ccccc1[N+](=O)[O-] [Example 3, 4-[4-(4-Difluoromethoxy-phenyl)-thiazol-2-yl]-2′-nitro-biphenyl-2-carboxylic acid] | 9.9
25 | O=C(O)c1cc(-c2nc(-c3ccc(Cl)c(Cl)c3)cs2)ccc1-c1cccc(C(F)(F)F)c1Cl [Example 126, 2′-Chloro-4-[4-(3,4-dichloro-phenyl)-thiazol-2-yl]-3′-trifluoromethyl-biphenyl-2-carboxylic acid] | 2.8
26 | CN(C)CCCNC(=O)c1ccc(-c2ccc(-c3nc(-c4ccc(Cl)c(Cl)c4)cs3)cc2C(=O)O)cc1 [Example 48, 4-[4-(3,4-Dichloro-phenyl)-thiazol-2-yl]-4′-(3-dimethylamino-propylcarbamoyl)-biphenyl-2-carboxylic acid] | > 80
27 | O=C(O)c1cc(-c2nc(-c3ccc(OC(F)(F)F)cc3)cs2)ccc1-c1ccccc1[N+](=O)[O-] [Example 2, 2′-Nitro-4-[4-(4-trifluoromethoxy-phenyl)-thiazol-2-yl]-biphenyl-2-carboxylic acid] | 2.6
28 | O=C(O)c1cc(-c2nc(-c3ccc(Cl)c(Cl)c3)cs2)ccc1-c1cc(F)cc(F)c1F [Example 133, 4-[4-(3,4-Dichloro-phenyl)-thiazol-2-yl]-2′,3′,5′-trifluoro-biphenyl-2-carboxylic acid] | 1.6
29 | N#Cc1ccc(Cl)c(-c2ccc(-c3nc(-c4ccc(Cl)c(Cl)c4)cs3)cc2C(=O)O)c1 [Example 108, 2′-Chloro-5′-cyano-4-[4-(3,4-dichloro-phenyl)-thiazol-2-yl]-biphenyl-2-carboxylic acid] | 3.5
30 | O=C(O)c1cc(-c2nc(-c3cc(C(F)(F)F)cc(C(F)(F)F)c3)cs2)ccc1-c1ccccc1[N+](=O)[O-] [Example 8, 4-[4-(3,5-Bis-trifluoromethyl-phenyl)-thiazol-2-yl]-2′-nitro-biphenyl-2-carboxylic acid] | 2.5
31 | O=C(O)c1cc(-c2nc(-c3ccc(Br)s3)cs2)ccc1-c1ccccc1[N+](=O)[O-] [Example 25, 4-[4-(5-Bromo-thiophen-2-yl)-thiazol-2-yl]-2′-nitro-biphenyl-2-carboxylic acid] | 4.4
32 | CCN(CC)CCCNC(=O)c1ccc(-c2ccc(-c3nc(-c4ccc(Cl)c(Cl)c4)cs3)cc2C(=O)O)cc1 [Example 47, 4-[4-(3,4-Dichloro-phenyl)-thiazol-2-yl]-4′-(3-diethylamino-propylcarbamoyl)-biphenyl-2-carboxylic acid] | > 80
33 | CCOc1ccc(-c2ccc(-c3nc(-c4ccc(Cl)c(Cl)c4)cs3)cc2C(=O)O)c(Cl)c1 [Example 89, 2′-Chloro-4-[4-(3,4-dichloro-phenyl)-thiazol-2-yl]-4′-ethoxy-biphenyl-2-carboxylic acid] | 2
34 | O=C(O)c1cc(-c2nc(-c3ccc(Cl)cc3Cl)cs2)ccc1-c1ccccc1[N+](=O)[O-] [Example 10, 4-[4-(2,4-Dichloro-phenyl)-thiazol-2-yl]-2′-nitro-biphenyl-2-carboxylic acid] | 3.5
35 | CC(=O)c1sccc1-c1ccc(-c2nc(-c3ccc(Cl)c(Cl)c3)cs2)cc1C(=O)O [Example 119, 2-(2-Acetyl-thiophen-3-yl)-5-[4-(3,4-dichloro-phenyl)-thiazol-2-yl]-benzoic acid] | 9.6
